# Data from patent US20240034743A9, “TRICYCLIC COMPOUNDS AS EGFR INHIBITORS” (QILU PHARMACEUTICAL CO., LTD., priority 2020, published 2024).
# Where two headings read alike, the source gives them in different places.
# Key:
# EGFR WT (wild type EGFR) = EGFR WT (wild type EGFR) (Homo sapiens (Human), UniProt P00533); experiment: In vitro enzymatic TR-FRET (HTRF KinEASE-TK) kinase assay, EGFR WT; type: biochemical
# Experimental: (I) In Vitro Enzymatic Experiment for EGFR WT and EGFR L858R/T790M/C797S
# In the assay, the inhibition effect of the compound on the kinase activity of EGFR WT (wild type EGFR) and EGFR L858R/T790M/C797S was tested by adopting a time-resolved fluorescence resonance energy transfer (TR-FRET) method, and half maximal inhibitory concentration IC50 of the compound on the kinase activity of EGFR was obtained.
# EGFR recombinase and EGFR L858R/T790M/C797S recombinase, purchased from Signalchem.
# HTRF KinEASE-TK kit, purchased from Cisbio.
# DTT, MnCl2, and MgCl2, purchased from Sigma.
# ATP, purchased from Promega.
# (§1) Brigatinib, purchased from Selleck.
# 1) 1× working solution was prepared: 5 mM MgCl2; 1 mM DTT; 1 mM MnCl2 and 1× kinase buffer (in kit).
# 2) […] of gradiently-diluted compound was transferred to a 384-well plate using Echo 550 (Labcyte).
# 3) 5 μL of 2× EGFR WT or EGFR L858R/T790M/C797S recombinase solution was added to the 384-well plate, and the plate was incubated at room temperature for 10 min.
# 4) 5 μL of 2× TK-substrate-biotin substrate solution (containing ATP) was added to the 384-well plate, and the plate was incubated at room temperature for 40 min.
# 5) 5 μL of assay solution containing Sa-XL 665 HTRF and 5 μL of TK-antibody-Cryptatewas were added to the plate, and the plate was incubated at room temperature for 1 h.
# 6) The fluorescence signal values at 615 nm and 665 nm were measured for each well using an Envision microplate reader (PerkinElmer).
# 7) The ratio of fluorescence signal values at 665 nm and 615 nm was calculated for each well.
# 8) Data analysis was performed using GraphPad Prism software to give the IC50 for compounds.
# A431 cells (EGFR WT) = experiment: A431 cell proliferation inhibition assay (CellTiter-Glo); type: cell-based; conditions: Homo sapiens
# Experimental: A431 Cell Proliferation Inhibition Assay
# In the assay, the inhibition effect of the compounds on the proliferation of A431 cells was tested by adopting a CellTiter-Glo method, and the concentration IC50 of the compound for inhibiting half maximal growth of cells was obtained.
# A431 cells, purchased from ATCC.
# DMEM medium, fetal bovine serum (FBS), and Penicillin-Streptomycin, purchased from GIBCO.
# as §1
# (§2) CellTiter-Glo reagent, purchased from Promega.
# 1) A431 cells were seeded in a 384-well plate at a density of 800 cells/well with 30 μL/well, and the plate was cultured in a cell incubator for 24 h (37° C., 5% CO2).
# (§3) 2) Day 0: […] of gradiently-diluted compounds to be tested with a final concentration of DMSO of 0.1% was added to plate using Echo, and the plate was incubated in a cell incubator for 72 h (37° C., 5% CO2). […] of DMSO was added into each well in blank control group.
# (§4) 3) Day 3: 30 μL Cell Titer-Glo reagent was added to each well, and the plate was in the dark under room temperature for 30 min.
# (§5) 4) The chemiluminescent signal was detected by an Envision plate reader (PerkinElmer).
# (§6) 5) Data analysis was performed using GraphPad Prism software to give the IC50 for compounds.
# [1] = system: Ba/F3_Del19/T790M/C797S cells; experiment: Ba/F3_Del19/T790M/C797S cell proliferation inhibition assay (CellTiter-Glo); type: cell-based; conditions: Mus musculus
# Experimental: Ba/F3_Del19/T790M/C797S Cell Proliferation Inhibition Assay
# In the assay, the inhibition effect of the compounds on the proliferation of Ba/F3_Del19/T790M/C797S cells was tested by adopting a CellTiter-Glo method, and the concentration IC50 of the compound for inhibiting half maximal growth of cells was obtained.
# Ba/F3_Del19/T790M/C797S, purchased from Kyinno Biotechnology Co., Ltd. 1640 medium, fetal bovine serum (FBS), Penicillin-Streptomyces, and GlutaMAX-I Supplement, purchased from GIBCO.
# as §1, §2
# 1) Ba/F3_Del19/T790M/C797S cells were seeded in a 384-well plate at a density of 700 cells/well with 30 μL/well.
# as §3, §4, §5
# Data analysis was performed using GraphPad Prism 6 software to give the IC50 for compounds.
# [2] = system: Ba/F3_L858R/T790M/C797S cells; experiment: Ba/F3_L858R/T790M/C797S cell proliferation inhibition assay (CellTiter-Glo); type: cell-based; conditions: Mus musculus
# Experimental: Ba/F3_L858R/T790M/C797S Cell Proliferation Inhibition Assay
# In the assay, the inhibition effect of the compounds on the proliferation of Ba/F3_L858R/T790M/C797S cells was tested by adopting a CellTiter-Glo method, and the concentration IC50 of the compound for inhibiting half maximal growth of cells was obtained.
# Ba/F3_L858R/T790M/C797S cells were constructed by Pharmaron Beijing Co., Ltd.
# 1640 medium, fetal bovine serum (FBS), Penicillin-Streptomyces, and GlutaMAX-I Supplement, purchased from GIBCO.
# as §1, §2
# 1) Ba/F3_L858R/T790M/C797S cells were seeded in a 384-well plate at a density of 700 cells/well with 30 μL/well.
# as §3, §4, §5, §6
# [3] = kinase activity, TR-FRET, read-out: EGFR (WT) IC50
# [4] = A-431, cell proliferation, 72 h, CellTiter-Glo, read-out: A431 EGFR WT IC50
# [5] = BaF3, cell proliferation, 72 h, CellTiter-Glo, read-out: Ba/F3 (Del19/T790M/C797S) IC50
# [6] = BaF3, cell proliferation, 72 h, CellTiter-Glo, read-out: Ba/F3 (L858R/T790M/C797S) IC50
# [7] = A-431, 72 h, read-out: A431 EGFR WT IC50(nM)
# [8] = BaF3, 72 h, read-out: Ba/F3 (Del19/T790M/C797S) IC50(nM)
# [9] = BaF3, 72 h, read-out: Ba/F3 (L858R/T790M/C797S) IC50(nM)
# Sequence of EGFR WT (wild type EGFR) (P00533 25-1210): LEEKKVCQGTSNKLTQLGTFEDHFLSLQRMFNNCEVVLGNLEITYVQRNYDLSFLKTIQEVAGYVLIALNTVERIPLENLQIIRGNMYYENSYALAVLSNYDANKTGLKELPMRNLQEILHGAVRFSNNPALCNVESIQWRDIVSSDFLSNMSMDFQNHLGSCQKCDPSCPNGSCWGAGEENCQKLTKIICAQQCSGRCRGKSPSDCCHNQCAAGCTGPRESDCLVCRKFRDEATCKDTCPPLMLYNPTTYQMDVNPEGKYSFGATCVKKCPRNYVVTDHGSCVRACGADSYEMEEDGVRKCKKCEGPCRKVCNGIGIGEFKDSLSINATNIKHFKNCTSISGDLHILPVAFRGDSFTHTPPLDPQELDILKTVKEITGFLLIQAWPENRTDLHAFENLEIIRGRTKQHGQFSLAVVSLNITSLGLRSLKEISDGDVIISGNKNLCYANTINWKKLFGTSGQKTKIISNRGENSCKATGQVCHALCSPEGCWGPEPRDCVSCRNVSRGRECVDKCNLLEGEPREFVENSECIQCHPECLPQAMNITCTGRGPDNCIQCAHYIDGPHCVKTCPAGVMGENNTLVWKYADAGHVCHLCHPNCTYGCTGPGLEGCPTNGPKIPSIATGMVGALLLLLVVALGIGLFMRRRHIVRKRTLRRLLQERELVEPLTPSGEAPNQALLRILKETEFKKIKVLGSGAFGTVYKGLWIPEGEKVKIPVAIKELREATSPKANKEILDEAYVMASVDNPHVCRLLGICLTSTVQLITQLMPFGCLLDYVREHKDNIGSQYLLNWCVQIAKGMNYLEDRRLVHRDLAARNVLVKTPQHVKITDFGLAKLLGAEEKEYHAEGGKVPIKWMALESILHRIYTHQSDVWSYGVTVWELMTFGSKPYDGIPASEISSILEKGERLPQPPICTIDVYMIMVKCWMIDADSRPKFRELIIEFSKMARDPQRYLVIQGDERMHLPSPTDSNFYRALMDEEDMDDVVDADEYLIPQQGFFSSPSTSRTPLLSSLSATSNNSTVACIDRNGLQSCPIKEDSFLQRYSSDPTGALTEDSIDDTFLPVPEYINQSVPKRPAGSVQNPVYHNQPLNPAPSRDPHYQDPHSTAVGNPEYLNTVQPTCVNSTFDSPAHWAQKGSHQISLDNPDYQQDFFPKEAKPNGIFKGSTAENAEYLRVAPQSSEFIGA
Structure (SMILES),IC50 (EGFR WT (wild type EGFR); [3]) [nM],IC50 (A431 cells (EGFR WT); [4]) [nM],"IC50 [1, 5] [nM]","IC50 [2, 6] [nM]",IC50 (A431 cells (EGFR WT); [7]) [nM],"IC50 [1, 8] [nM]","IC50 [2, 9] [nM]",IC50 (EGFR WT (wild type EGFR)) [nM]
COc1cc2c(cc1Nc1ncc(Br)c(Nc3ccccc3S(=O)(=O)N(C)C)n1)-c1cnn(C)c1CCN2C(C)C [Compound 126],1 to 10,> 1000,100 to 1000,100 to 1000,–,–,–,–
COc1cc2c(cc1Nc1ncc(Br)c(Nc3ccc4nccnc4c3P(C)(C)=O)n1)-c1cnn(C)c1CNC2 [Compound 71],1 to 10,50 to 100,< 10,< 10,–,–,–,–
COc1cc2c(cc1Nc1ncc(Br)c(Nc3ccc(F)cc3NS(C)(=O)=O)n1)-c1cnn(C)c1CCN2C(C)C [Compound 128],1 to 10,> 1000,< 10,< 10,–,–,–,–
CNC(=O)c1c(Nc2nc(Nc3cc4c(cc3OC)N(C(C)C)CCc3c-4cnn3C)ncc2Br)ccc2nccnc12 [Compound 129],1 to 10,100 to 1000,10 to 50,10 to 50,–,–,–,–
COc1cc2c(cc1Nc1ncc(Br)c(Nc3ccc4nccnc4c3P(C)(C)=O)n1)-c1cnn(C3COC3)c1CCN2C(C)C [Compound 98],1 to 10,100 to 1000,10 to 50,10 to 50,–,–,–,–
COc1cc2c(cc1Nc1ncc(Br)c(Nc3ccc4nccnc4c3NS(C)(=O)=O)n1)-c1cnn(C)c1CCN2C#N [Compound 113],1 to 10,100 to 1000,< 10,10 to 50,–,–,–,–
CCn1ncc2c1CCN(C)c1cc(OC)c(Nc3ncc(Br)c(Nc4ccccc4P(C)(C)=O)n3)cc1-2 [Compound 39],10 to 50,–,–,–,100 to 1000,10 to 50,10 to 50,–
COc1cc2c(cc1Nc1ncc(Br)c(Nc3ccc4nccnc4c3N(C(C)C)S(C)(=O)=O)n1)-c1cnn(C)c1CCN2 [Compound 123],–,–,–,–,100 to 1000,< 10,< 10,1 to 10
COc1cc2c(cc1Nc1ncc(Br)c(Nc3ccccc3P(C)(C)=O)n1)-c1cnc(C)n1CCN2C [Compound 55],10 to 50,100 to 1000,10 to 50,100 to 1000,–,–,–,–
COc1cc2c(cc1Nc1ncc(Br)c(Nc3ccccc3P(C)(C)=O)n1)-c1cn(CCN(C)C)nc1CCN2C(C)C [Compound 56],1 to 10,–,–,–,100 to 1000,< 10,10 to 50,–
COc1cc2c(cc1Nc1ncc(C)c(Nc3ccccc3P(C)(C)=O)n1)-c1cnn(C)c1CCN2C [Compound 7],1 to 10,100 to 1000,< 10,< 10,–,–,–,–
COc1cc2c(cc1Nc1ncc(Br)c(Nc3ccc4nccnc4c3C(=O)N(C)C)n1)-c1cnn(C)c1CCN2C(C)C [Compound 109],1 to 10,–,–,–,100 to 1000,10 to 50,10 to 50,–
COc1cc2c(cc1Nc1ncc(Br)c(Nc3ccc4nccnc4c3N(C)S(=O)(=O)C3CC3)n1)-c1cnn(C)c1CCN2C [Compound 21],1 to 10,100 to 1000,< 10,< 10,–,–,–,–
COc1cc2c(cc1Nc1ncc(Br)c(Nc3ccc4nccnc4c3P(C)(C)=O)n1)-c1cnn(C)c1CN(C(C)C)C2 [Compound 72],1 to 10,–,–,–,50 to 100,< 10,10 to 50,–
COc1cc2c(cc1Nc1ncc(Br)c(Nc3ccccc3NS(C)(=O)=O)n1)-c1cnn(C)c1CCN2C(C)C [Compound 54],1 to 10,100 to 1000,< 10,10 to 50,–,–,–,–
COc1cc2c(cc1Nc1ncc(C)c(Nc3ccccc3P(C)(C)=O)n1)-c1cnn(C)c1CCN2C(C)C [Compound 94],1 to 10,100 to 1000,10 to 50,10 to 50,–,–,–,–
COc1cc2c(cc1Nc1ncc(Br)c(Nc3ccccc3P(C)(C)=O)n1)-c1cnnn1CCN2C [Compound 48],10 to 50,100 to 1000,< 10,10 to 50,–,–,–,–
COc1cc2c(cc1Nc1ncc(C)c(Nc3ccc4nccnc4c3NS(C)(=O)=O)n1)-c1cnn(C)c1CCN2C(C)C [Compound 104],1 to 10,100 to 1000,< 10,< 10,–,–,–,–
COc1cc2c(cc1Nc1ncc(Br)c(Nc3ccc4nccnc4c3P(C)(C)=O)n1)-c1cnn(C)c1CN(C)C2=O [Compound 9],10 to 50,100 to 1000,10 to 50,10 to 50,–,–,–,–

# Further lines, with some results ahead:
IC50 (EGFR WT (wild type EGFR); [3]) [nM],IC50 (A431 cells (EGFR WT); [4]) [nM],"IC50 [1, 5] [nM]","IC50 [2, 6] [nM]",Structure (SMILES),IC50 (A431 cells (EGFR WT); [7]) [nM],"IC50 [1, 8] [nM]","IC50 [2, 9] [nM]",IC50 (EGFR WT (wild type EGFR)) [nM]
1 to 10,100 to 1000,< 10,< 10,COc1cc2c(cc1Nc1ncc(Br)c(Nc3ccc4nccnc4c3P(C)(C)=O)n1)-c1cnn(C)c1CCN2C1CCN(C2CC(F)(F)C2)CC1 [Compound 96],–,–,–,–
10 to 50,100 to 1000,10 to 50,10 to 50,COc1cc2c(cc1Nc1ncc(Br)c(Nc3ccccc3P(C)(C)=O)n1)-c1cnn(C)c1CNC2 [Compound 49],–,–,–,–
1 to 10,50 to 100,< 10,< 10,COc1cc2c(cc1Nc1ncc(Br)c(Nc3ccc(F)cc3P(C)(C)=O)n1)-c1cnn(C)c1CCN2C [Compound 43],–,–,–,–
10 to 50,100 to 1000,10 to 50,50 to 100,COc1cc2c(cc1Nc1ncc(Br)c(Nc3ccccc3P(C)(C)=O)n1)-c1cnn(C)c1CCC2 [Compound 38],–,–,–,–
1 to 10,100 to 1000,< 10,10 to 50,COc1cc2c(cc1Nc1ncc(Br)c(Nc3ccccc3P(C)(C)=O)n1)-c1cnn(C)c1C(F)(F)CN2 [Compound 92],–,–,–,–
1 to 10,100 to 1000,< 10,< 10,COc1cc2c(cc1Nc1ncc(Br)c(Nc3ccccc3N(C)S(=O)(=O)C3CC3)n1)-c1cnn(C)c1CCN2C [Compound 3],–,–,–,–
1 to 10,100 to 1000,< 10,< 10,COc1cc2c(cc1Nc1ncc(Br)c(Nc3ccc4nccnc4c3N(C)S(C)(=O)=O)n1)-c1cnn(C)c1CCN2C1CCOCC1 [Compound 138],–,–,–,–
1 to 10,100 to 1000,10 to 50,50 to 100,COc1cc2c(cc1Nc1ncc(Cl)c(Nc3ccncc3P(C)(C)=O)n1)-c1cnn(C)c1CCN2C(C)C [Compound 95],–,–,–,–
1 to 10,100 to 1000,< 10,10 to 50,COc1cc2c(cc1Nc1ncc(Br)c(Nc3ccccc3P(C)(C)=O)n1)-c1cn[nH]c1CCN2C [Compound 37],–,–,–,–
